Results as given in patent US20260049085A1, “CYCLIC COMPOUNDS AND METHODS OF USING SAME” (SCHRÖDINGER, INC., priority 2022, published 2026).

Legend:
[1] = tested on: IL10 secretion, OCI-LY10 cells; test: Human IL10 secretion assay in OCI-LY10 cells (MSD); type: cell-based; settings: 24 h incubation, relative to DMSO set as 100%, read-out: IL-10 Secretion IC50
Experimental: IL10 is one of the cytokines that are regulated via activation of NF-kB signaling. For example, in ABC-DLBCL cell lines, the activated NF-kB signaling leads to increased IL10 secretion. Inhibition of NF-kB signaling has been shown leading to decreased IL10 secretion.
OCI-LY10 cells were seeded in IMEM supplemented with 20% fetal bovine serum at 4.8×10^5 cells per 160 μL per well in 96-well V-bottom cell culture plates (coming, 3894), treated with 120 nL of 3-fold serial compound dilutions, starting at 4 mM. The final vehicle concentration was 0.075% DMSO in all wells. After a 24 h incubation, human IL-10 pre-coated plates (Meso Scale Discovery) were washed 3 times with PBST, and 50 μL culture medium was aspirated into the MSD plate and incubated at 4° C. overnight. The supernatant was then discarded, and the wells were washed 3 times with PBST. SULFO-TAG Anti-human IL-10 Antibody (50×) was diluted 50-fold according to the Meso Scale Protocol, then 25 μL of SULFO-TAG Anti-human IL-10 Antibody (1×) was added. After 2 h of incubation at RT, the supernatant was discarded, and the well was washed 3 times with PBST. 2× read buffer was added and the signal was read on an MSD Sector S600. The effect of a particular compound on IL10 secretion is shown relative to the effect of DMSO; set as 100%. IC50 values (nM) were determined using 4-parametric curve-fitting.

[2] = target: T1, full-length MALT1 protein His-MALT1(1-824) (Homo sapiens, UniProt Q9UDY8); test: MALT1 protease assay (Ac-LRSR-AMC tetrapeptide substrate, fluorescence); type: biochemical; settings: 1 nM MALT1, 25 μM Ac-LRSR-AMC, 2 h pre-incubation, 8 hr incubation at RT
T1 construct: full-length MALT1 protein His-MALT1(1-824); His (N); made in house; host or cells: baculovirus-infected insect cells
T1 sequence (Q9UDY8 1-824): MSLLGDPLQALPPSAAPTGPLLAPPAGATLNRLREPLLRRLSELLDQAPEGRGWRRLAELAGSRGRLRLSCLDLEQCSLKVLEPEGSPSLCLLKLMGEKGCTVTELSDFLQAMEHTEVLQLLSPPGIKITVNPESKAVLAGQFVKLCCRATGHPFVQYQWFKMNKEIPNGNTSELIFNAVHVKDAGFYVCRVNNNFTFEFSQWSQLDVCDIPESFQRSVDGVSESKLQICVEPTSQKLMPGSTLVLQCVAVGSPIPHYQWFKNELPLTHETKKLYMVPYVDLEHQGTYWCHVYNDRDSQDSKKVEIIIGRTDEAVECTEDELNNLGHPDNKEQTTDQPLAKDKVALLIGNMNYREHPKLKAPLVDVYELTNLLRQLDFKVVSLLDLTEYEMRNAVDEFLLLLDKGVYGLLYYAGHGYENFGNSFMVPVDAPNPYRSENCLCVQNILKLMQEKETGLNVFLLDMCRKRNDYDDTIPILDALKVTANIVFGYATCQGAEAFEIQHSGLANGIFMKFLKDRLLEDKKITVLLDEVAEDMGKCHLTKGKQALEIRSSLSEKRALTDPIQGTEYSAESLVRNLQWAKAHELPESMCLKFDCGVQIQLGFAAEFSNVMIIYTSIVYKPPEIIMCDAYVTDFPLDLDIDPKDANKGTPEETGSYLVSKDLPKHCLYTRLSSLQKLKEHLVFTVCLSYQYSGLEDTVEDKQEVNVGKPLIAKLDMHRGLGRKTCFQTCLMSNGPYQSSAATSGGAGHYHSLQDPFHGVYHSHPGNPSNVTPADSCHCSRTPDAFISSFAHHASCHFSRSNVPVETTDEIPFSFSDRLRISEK
In short: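 Full-length His-MALT1(1-824) from baculovirus-infected insect cells (1 nM) was pre-incubated 2 h at RT with compounds (0.1% DMSO), then 25 μM Ac-LRSR-AMC added in 50 mM Tris pH 7.5, 600 mM sodium citrate, 1 mM DTT, 1 mM EDTA, 0.05% BSA. Fluorescence (ex 355/em 460 nm) read after 8 h at RT; IC50 by non-linear regression of % remaining activity.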

Row | Compound | IC50 [1] | IC50 [2]
1 | Cn1cc([C@@]2(C)C[C@H](C(=O)Nc3cnc(-n4nccn4)c(Cl)c3)c3cnc4cc(F)nn4c32)cn1 (single isomer, unassigned) [Example 1] | 100 to 1000 nM | < 10 nM
2 | Cn1cc([C@@]2(C)C[C@H](C(=O)Nc3cnc(-n4nccn4)c(C(F)(F)F)c3)c3cnc4cc(F)nn4c32)cn1 (single isomer, unassigned) [Example 5] | 10 to 100 nM | < 10 nM
3 | Cn1cc([C@@]2(C)C[C@H](C(=O)Nc3cnc(-n4nccn4)c(Cl)c3)c3cnc4cc(Cl)nn4c32)cn1 (single isomer, unassigned) [Example 8] | 10 to 100 nM | < 10 nM
4 | Cn1cc([C@@]2(C)C[C@H](C(=O)Nc3cnc(-n4nccn4)c(Cl)c3)c3cnc4c(F)c(F)nn4c32)cn1 (single isomer, unassigned) [Example 12] | 100 to 1000 nM | < 10 nM
5 | CCn1cc([C@@]2(C)C[C@H](C(=O)Nc3cnc(-n4nccn4)c(Cl)c3)c3cnc4cc(F)nn4c32)cn1 (single isomer, unassigned) [Example 20] | 10 to 100 nM | < 10 nM
6 | C[C@]1(c2cnn(C(F)F)c2)C[C@H](C(=O)Nc2cnc(-n3nccn3)c(Cl)c2)c2cnc3cc(F)nn3c21 (single isomer, unassigned) [Example 24] | 10 to 100 nM | < 10 nM
7 | C[C@]1(c2cnn(C3CC3)c2)C[C@H](C(=O)Nc2cnc(-n3nccn3)c(Cl)c2)c2cnc3cc(F)nn3c21 (single isomer, unassigned) [Example 28] | 10 to 100 nM | < 10 nM
8 | Cn1ccc([C@@]2(C)C[C@H](C(=O)Nc3cnc(-n4nccn4)c(Cl)c3)c3cnc4cc(F)nn4c32)n1 (single isomer, unassigned) [Example 32] | 100 to 1000 nM | < 10 nM
9 | Cn1cc([C@@]2(C)C[C@H](C(=O)Nc3cnc(OC(F)F)c(C#N)c3)c3cnc4cc(F)nn4c32)cn1 (single isomer, unassigned) [Example 40] | 10 to 100 nM | < 10 nM
10 | Cn1ccc([C@@]2(C)C[C@H](C(=O)Nc3cnc(OC(F)F)c(C#N)c3)c3cnc4cc(F)nn4c32)n1 (single isomer, unassigned) [Example 68] | 100 to 1000 nM | < 10 nM
11 | C[C@]1(c2ccn(C(F)F)n2)C[C@H](C(=O)Nc2cnc(-n3nccn3)c(Cl)c2)c2cnc3cc(F)nn3c21 (single isomer, unassigned) [Example 88] | 10 to 100 nM | < 10 nM
12 | C[C@]1(c2cnn(C(F)F)c2)C[C@H](C(=O)Nc2cnc(OC(F)F)c(C#N)c2)c2cnc3cc(F)nn3c21 (single isomer, unassigned) [Example 92] | 100 to 1000 nM | < 10 nM
13 | C[C@]1(c2ccn(C(F)F)n2)C[C@H](C(=O)Nc2cnc(OC(F)F)c(C#N)c2)c2cnc3cc(F)nn3c21 (single isomer, unassigned) [Example 110] | 10 to 100 nM | < 10 nM
14 | CC1(c2ccn(C(F)F)n2)CC(C(=O)Nc2cnc(-c3ncc(F)cn3)c(C(F)(F)F)c2)c2cnc3cc(F)nn3c21 (single isomer, unassigned) [Example 116] | 100 to 1000 nM | < 10 nM
15 | CC(F)(F)n1cc([C@@]2(C)C[C@H](C(=O)Nc3cnc(-n4nccn4)c(Cl)c3)c3cnc4cc(F)nn4c32)cn1 (single isomer, unassigned) [Example 120] | 10 to 100 nM | < 10 nM
16 | C[C@]1(c2ccn(C(F)F)n2)C[C@H](C(=O)Nc2cnc(-n3nccn3)c(C(F)(F)F)c2)c2cnc3cc(F)nn3c21 (single isomer, unassigned) [Example 124] | 10 to 100 nM | < 10 nM
17 | C[C@]1(c2ccn(C(F)F)n2)C[C@H](C(=O)Nc2cnc(-c3ncccn3)c(C(F)(F)F)c2)c2cnc3cc(F)nn3c21 (single isomer, unassigned) [Example 136] | 10 to 100 nM | < 10 nM
18 | C[C@]1(c2ccn(C(F)F)n2)C[C@H](C(=O)Nc2cnc(-c3ncccn3)c(Cl)c2)c2cnc3cc(F)nn3c21 (single isomer, unassigned) [Example 140] | 10 to 100 nM | < 10 nM
19 | Cn1ccc([C@@]2(C)C[C@H](C(=O)Nc3cnc(-n4nccn4)c(C(F)(F)F)c3)c3cnc4cc(F)nn4c32)n1 (single isomer, unassigned) [Example 144] | 100 to 1000 nM | < 10 nM
20 | C[C@]1(c2cnn(C(F)F)c2)C[C@H](C(=O)Nc2cnc(-c3ncccn3)c(C(F)(F)F)c2)c2cnc3cc(F)nn3c21 (single isomer, unassigned) [Example 148] | 100 to 1000 nM | 10 to 100 nM
21 | C[C@]1(c2cnn(C(F)F)c2)C[C@H](C(=O)Nc2cnc(-c3ncc(F)cn3)c(Cl)c2)c2cnc3cc(F)nn3c21 [Example 134, (6S,8R)—N-(5-chloro-6-(5-fluoropyrimidin-2-yl)pyridin-3-yl)-8-(1-(difluoromethyl)-1H-pyrazol-4-yl)-2-fluoro-8-methyl-7,8-dihydro-6H-cyclopenta[e]pyrazolo[1,5-a]pyrimidine-6-carboxamide] | – | 10 to 100 nM
